From patent US20260085073A1, “PYRAZOLYLCARBOXAMIDE COMPOUNDS AND THEIR USE IN THERAPY” (Hotspot Therapeutics, Inc., priority 2022, published 2026)

Molecular target: T1, MALT1 (Homo sapiens, UniProt Q9UDY8)
T1 construct: Avi-tagged FL MALT-1 (Pharmaron, stored at −70° C.); Avi-tag
T1 sequence (Q9UDY8 1-824): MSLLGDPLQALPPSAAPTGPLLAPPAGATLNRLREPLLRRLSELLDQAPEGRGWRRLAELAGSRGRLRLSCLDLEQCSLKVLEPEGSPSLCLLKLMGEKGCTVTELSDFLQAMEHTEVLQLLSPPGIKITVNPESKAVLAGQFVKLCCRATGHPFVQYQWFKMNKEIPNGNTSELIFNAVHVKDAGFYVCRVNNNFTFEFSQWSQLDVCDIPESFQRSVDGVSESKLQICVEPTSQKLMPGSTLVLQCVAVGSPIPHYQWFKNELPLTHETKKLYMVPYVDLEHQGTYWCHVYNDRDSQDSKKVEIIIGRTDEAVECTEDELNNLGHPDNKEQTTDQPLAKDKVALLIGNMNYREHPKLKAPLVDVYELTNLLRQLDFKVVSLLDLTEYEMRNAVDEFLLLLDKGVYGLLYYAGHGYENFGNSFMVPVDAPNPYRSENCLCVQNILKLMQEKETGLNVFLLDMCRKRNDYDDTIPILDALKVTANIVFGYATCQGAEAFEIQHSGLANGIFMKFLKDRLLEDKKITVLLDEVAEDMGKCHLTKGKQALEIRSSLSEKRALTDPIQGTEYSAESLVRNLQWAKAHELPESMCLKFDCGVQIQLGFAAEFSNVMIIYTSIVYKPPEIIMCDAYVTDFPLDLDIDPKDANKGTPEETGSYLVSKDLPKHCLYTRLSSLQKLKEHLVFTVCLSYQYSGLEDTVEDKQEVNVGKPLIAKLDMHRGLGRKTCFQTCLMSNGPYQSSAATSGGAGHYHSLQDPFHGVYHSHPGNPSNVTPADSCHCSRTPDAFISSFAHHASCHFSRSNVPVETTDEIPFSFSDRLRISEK
Test: MALT1 inhibition assay (MALT-1 Fluorogenic Peptide Cleavage Assay, Ac-LRSR-AMC substrate)
Assay type: biochemical
Settings: Avi-tagged FL MALT-1, 30 min pre-incubation, 90 min reaction at room temperature, fluorescence intensity
Description: Example 71—MALT1 Inhibition Assay
Compounds were tested for ability to bind to MALT1.
Inhibition of MALT1 activity by the presence of small molecules was evaluated using MALT-1 Fluorogenic Peptide Cleavage Assay. The assay utilizes a quenched AMC-labelled peptide that contains the MALT-1 recognition sequence and cleavage site (LRSR). MALT-1 mediated cleavage of the peptide relieves the quenching and leads to an increase in fluorescence at excitation (342 nm) and emission (441 nm).
The following reagents were obtained commercially and used to prepare standard reagent formulations as further described below: N-2-hydroxyethylpiperazine-N-2-ethane sulfonic acid (HEPES) (1 M, pH 7.5, stored at 4° C.), sodium citrate (stored at RT), tris(2-carboxyethyl) phosphine hydrochloride (T-CEP) (500 mM, stored at −20° C.), ethylenediaminetetraacetic acid (EDTA) (500 mM, stored at RT), dimethylsulfoxide (DMSO, stored at RT), 3-[(3-cholamidopropyl)dimethylammonio]-1-propane sulphate (CHAPS) (stored at RT), dimethylsulfoxide (DMSO), DMSO (Fisher Scientific, stored at RT), Avi-tagged FL MALT-1 (Pharmaron, stored at −70° C.), Ac-LRSR-AMC Peptide (SM Biochemicals, stored at −20° C.), and ultrapure water (MILLI-QR).
The standard reagent formulations used in this assay were prepared and stored as follows. A 1.1 M solution of sodium citrate (161.3 g, 500 mL) was prepared and stored at room temperature. A 10% (w/v) CHAPS solution (2.0 g, 20 mL) was prepared and stored at 4° C. A 500 mM HEPES solution having pH of 6.89 was prepared from 200 mL of a 1 M HEPES solution having a pH of 7.5 using concentrated hydrochloric acid and brought to a final volume of 400 mL with MILLI-QR H2O. The substrate, 10 mM Ac-LRSR-AMC Peptide, was prepared (10 mg, 1.370 mL DMSO) and stored at −20° C.
Compounds were plated to provide a 2% DMSO final concentration using a ProxiPlate-384 Plus F Black 384-shallow well microplate. The assay-ready plates were equilibrated to room temperature. A reaction buffer (30 mL total volume) was prepared by combining HEPES (pH 6.89, 25 mM, 1.5 mL), sodium citrate (660 mM, 18.0 mL), T-CEP (1 mM, 0.06 mL), EDTA ([…], 0.06 mL), CHAPS (0.05%, 0.15 mL), DMSO (2%, 0.6 mL), and MILLI-QR H2O (10.23 mL; 9.63 mL when backfilled to 2% DMSO) followed by thorough mixing. DMSO was added only when compound plates had not been DMSO-backfilled to 2%.
MALT-1 was thawed and kept on ice. Peptide substrate was thawed on the bench under ambient conditions. A MALT-1 enzyme working stock was prepared from Avi-tagged FL MALT-1 (40 nM in a prepared reagent volume of 16.5 μL) and the reaction buffer (13.0 mL). MALT1 working stock (5 μL) was added to each well of the microplate. MALT-1 was pre-incubated with compounds for 30 minutes at room temperature.
Two substrate working stocks (Km and 10×Km) were prepared. The 1×Km substrate was prepared from Ac-LRSR-AMC Peptide (50 μM in a prepared reagent volume of 35.0 μL) and the reaction buffer (6.965 mL). The 10×Km substrate was prepared from Ac-LRSR-AMC Peptide (280 μM in a prepared reagent volume of 196.0 μL) and the reaction buffer (6.804 mL). The reaction was initiated by the addition of substrate working stock (5 μL, 50 μM) to Km plates and the addition of substrate working stock (5 μL 280 μM) to 10×Km plates. The plates were covered and incubated on the bench at room temperature for 90 minutes.
Fluorescence intensity was determined using a CLARIOstar microplate reader (BMG LABTECH) using the optimised AMC mode. Before taking readings, a 70% gain was applied on the neutral control well. Compound data were normalised to % Inhibition and used to plot sigmoidal concentration response curves to yield various parameters including IC50.

SMILES | IC50
Cn1nc([C@@H]2C[C@H]2c2ccccc2)c(C(F)(F)F)c1C(=O)Nc1ccnc(C(F)(F)F)c1 (racemic) [Compound I-40] | > 10 µM
Cn1nc(-c2csc3cnccc23)c(C(F)(F)F)c1C(=O)Nc1ccnc(C(F)(F)F)c1 [Compound I-1, 1-methyl-3-(thieno[2,3-c]pyridin-3-yl)-4-(trifluoromethyl)-N-(2-(trifluoromethyl)pyridin-4-yl)-1H-pyrazole-5-carboxamide] | < 0.5 µM
Cn1nc(-c2cccc3c2OCC(=O)N3)c(C(F)(F)F)c1C(=O)Nc1ccnc(C(F)(F)F)c1 [Compound I-2] | 2.5 to 10 µM
Cn1nc(-c2cccc3c2CCNC3=O)c(C(F)(F)F)c1C(=O)Nc1ccnc(C(F)(F)F)c1 [Compound I-3] | 2.5 to 10 µM
Cn1nc(-c2cccc3ncn(C)c23)c(C(F)(F)F)c1C(=O)Nc1ccnc(C(F)(F)F)c1 [Compound I-4] | < 0.5 µM
Cn1cc2cccc(-c3nn(C)c(C(=O)Nc4ccnc(C(F)(F)F)c4)c3C(F)(F)F)c2n1 [Compound I-5] | 2.5 to 10 µM
Cn1nc(-c2c[nH]c3ncccc23)c(C(F)(F)F)c1C(=O)Nc1ccnc(C(F)(F)F)c1 [Compound I-6] | < 0.5 µM
Cn1nc(-c2cccc3cccnc23)c(C(F)(F)F)c1C(=O)Nc1ccnc(C(F)(F)F)c1 [Compound I-7] | 0.5 to 2.5 µM
Cn1nc(-c2ccc(=O)n(C)c2)c(C(F)(F)F)c1C(=O)Nc1ccnc(C(F)(F)F)c1 [Compound I-8] | 2.5 to 10 µM
Cn1nc(-c2cccc3ocnc23)c(C(F)(F)F)c1C(=O)Nc1ccnc(C(F)(F)F)c1 [Compound I-9] | < 0.5 µM
Cn1nc(-c2cccc3nc[nH]c23)c(C(F)(F)F)c1C(=O)Nc1ccnc(C(F)(F)F)c1 [Compound I-10] | 0.5 to 2.5 µM
Cn1nc(-c2cccc3ncoc23)c(C(F)(F)F)c1C(=O)Nc1ccnc(C(F)(F)F)c1 [Compound I-11] | < 0.5 µM
Cn1nc(-c2cccc3c2CC(=O)N3)c(C(F)(F)F)c1C(=O)Nc1ccnc(C(F)(F)F)c1 [Compound I-12] | 0.5 to 2.5 µM
Cn1nc(-c2cccc3nccn23)c(C(F)(F)F)c1C(=O)Nc1ccnc(C(F)(F)F)c1 [Compound I-13] | 0.5 to 2.5 µM
Cn1nc(-c2ccnc3ccoc23)c(C(F)(F)F)c1C(=O)Nc1ccnc(C(F)(F)F)c1 [Compound I-14] | < 0.5 µM
Cn1nc(-c2cnc3ncccn23)c(C(F)(F)F)c1C(=O)Nc1ccnc(C(F)(F)F)c1 [Compound I-15] | > 10 µM
Cn1nc(-c2cnc3cccnn23)c(C(F)(F)F)c1C(=O)Nc1ccnc(C(F)(F)F)c1 [Compound I-16] | > 10 µM
Cc1ccc(-c2nn(C)c(C(=O)Nc3ccnc(C(F)(F)F)c3)c2C(F)(F)F)c(Cl)c1 [Compound I-18] | 0.5 to 2.5 µM
COc1ccncc1-c1nn(C)c(C(=O)Nc2ccnc(C(F)(F)F)c2)c1C(F)(F)F [Compound I-19] | 0.5 to 2.5 µM
COc1cccc(OC)c1-c1nn(C)c(C(=O)Nc2ccnc(C(F)(F)F)c2)c1C(F)(F)F [Compound I-20] | 0.5 to 2.5 µM
Cn1nc(-c2cccc3nccnc23)c(C(F)(F)F)c1C(=O)Nc1ccnc(C(F)(F)F)c1 [Compound I-21] | 0.5 to 2.5 µM

SMILES | IC50
Cn1nc(-c2ccc(C#N)c3ncccc23)c(C(F)(F)F)c1C(=O)Nc1ccnc(C(F)(F)F)c1 [Compound I-22] | 0.5 to 2.5 µM
Cn1nc(-c2cccc3c2NC(=O)C3)c(C(F)(F)F)c1C(=O)Nc1ccnc(C(F)(F)F)c1 [Compound I-23] | 0.5 to 2.5 µM
Cn1nc(-c2cccc3c(C#N)nccc23)c(C(F)(F)F)c1C(=O)Nc1ccnc(C(F)(F)F)c1 [Compound I-24] | 0.5 to 2.5 µM
Cn1nc(-c2cccc3c2OCCCO3)c(C(F)(F)F)c1C(=O)Nc1ccnc(C(F)(F)F)c1 [Compound I-25] | 2.5 to 10 µM
Cn1nc(-c2cnn3c2OCCC3)c(C(F)(F)F)c1C(=O)Nc1ccnc(C(F)(F)F)c1 [Compound I-26] | > 10 µM
Cn1nc(-c2cccc3cnccc23)c(C(F)(F)F)c1C(=O)Nc1ccnc(C(F)(F)F)c1 [Compound I-27] | 0.5 to 2.5 µM
Cn1nc(-c2ccccc2OC2COC2)c(C(F)(F)F)c1C(=O)Nc1ccnc(C(F)(F)F)c1 [Compound I-28] | 2.5 to 10 µM
Cn1nc(-c2cccc3ccoc23)c(C(F)(F)F)c1C(=O)Nc1ccnc(C(F)(F)F)c1 [Compound I-29] | < 0.5 µM
Cn1nc(-c2cccc3ccoc23)c(C(F)(F)F)c1C(=O)Nc1cnc(-n2nccn2)c(C#N)c1 [Compound I-30] | < 0.5 µM
Cn1nc(-c2cccc3cnccc23)c(C(F)(F)F)c1C(=O)Nc1cnc(-n2nccn2)c(C#N)c1 [Compound I-31] | < 0.5 µM
Cn1nc(/C=C/c2ccccc2)c(C(F)(F)F)c1C(=O)Nc1ccnc(C(F)(F)F)c1 [Compound I-32] | > 10 µM
Cn1nc(-c2cccc3c2OCO3)c(C(F)(F)F)c1C(=O)Nc1ccnc(C(F)(F)F)c1 [Compound I-33] | < 0.5 µM
Cn1nc(-c2ccccc2OC2COC2)c(C(F)(F)F)c1C(=O)Nc1cnc(-n2nccn2)c(C#N)c1 [Compound I-34] | 0.5 to 2.5 µM
Cn1nc(-c2ccc(C#N)cc2Cl)c(C(F)(F)F)c1C(=O)Nc1cnc(-n2nccn2)c(C#N)c1 [Compound I-35] | < 0.5 µM
Cn1nc(-c2ccc(C#N)cc2Cl)c(C(F)(F)F)c1C(=O)Nc1cnc(-n2nccn2)c(Cl)c1 [Compound I-36] | < 0.5 µM
Cn1nc(-c2ccc3cnccc3c2)c(C(F)(F)F)c1C(=O)Nc1ccnc(C(F)(F)F)c1 [Compound I-37] | > 10 µM
Cn1nc(-c2cccc3ncccc23)c(C(F)(F)F)c1C(=O)Nc1cnc(-n2nccn2)c(C#N)c1 [Compound I-38] | 0.5 to 2.5 µM
Cn1nc(-c2cccc3ncccc23)c(C(F)(F)F)c1C(=O)Nc1ccnc(C(F)(F)F)c1 [Compound I-39] | 0.5 to 2.5 µM
Cn1nc(-c2ccc(C#N)cc2Cl)c(C(F)(F)F)c1C(=O)Nc1ccnc(C(F)(F)F)c1 [Compound I-41] | < 0.5 µM
Cn1nc(-c2cncc3sccc23)c(C(F)(F)F)c1C(=O)Nc1ccnc(C(F)(F)F)c1 [Compound I-42, 1-methyl-3-(thieno[2,3-c]pyridin-4-yl)-4-(trifluoromethyl)-N-(2-(trifluoromethyl)pyridin-4-yl)-1H-pyrazole-5-carboxamide] | < 0.5 µM
